Activity calls are given as the source filed them. Some results are limits rather than exact numbers.

Among the data in ChEMBL document CHEMBL1201862, “PubChem BioAssay data set” (2004) are EC50, IC50 and AC50 values, retold here.

Experiment [1] in a line: cells. Format: functional, cell-based.
The target in experiment [2] is T1, Trace amine-associated receptor 1 (Homo sapiens, UniProt Q96RJ0). Kind of experiment: Counterscreen for agonists of the human trace amine associated receptor 1 (hTAAR1): Fluorescence-based cell-based high throughput dose response assay to identify hTAAR1 agonist that also desensitize TAAR1 receptor response. Format: functional. (In general: The purpose of a counterscreen is to sort out artefacts and off-target activity.)
T1 sequence (Q96RJ0 whole entry): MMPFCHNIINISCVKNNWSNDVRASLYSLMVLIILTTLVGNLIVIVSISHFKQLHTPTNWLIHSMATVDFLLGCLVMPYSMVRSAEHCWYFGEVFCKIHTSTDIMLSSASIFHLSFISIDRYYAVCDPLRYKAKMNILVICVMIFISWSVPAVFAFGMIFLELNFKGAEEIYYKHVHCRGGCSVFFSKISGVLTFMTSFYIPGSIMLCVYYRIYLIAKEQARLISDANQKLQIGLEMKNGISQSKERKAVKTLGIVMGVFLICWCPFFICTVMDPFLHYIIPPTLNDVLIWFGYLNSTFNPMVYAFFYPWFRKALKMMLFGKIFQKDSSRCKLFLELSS

For experiment [3], the target named is T1, Trace amine-associated receptor 1. Kind of experiment: Fluorescence-based cell-based high throughput dose response assay to identify agonists of the human trace amine associated receptor 1 (TAAR1). Format: functional.
Experiment [4] can be described thus: cells. Format: functional, cell-based. This is another data set of the same source.
Experiment [5] addresses T2, Oxysterols receptor LXR-beta (Homo sapiens, UniProt P55055).
T2 sequence (P55055 whole entry): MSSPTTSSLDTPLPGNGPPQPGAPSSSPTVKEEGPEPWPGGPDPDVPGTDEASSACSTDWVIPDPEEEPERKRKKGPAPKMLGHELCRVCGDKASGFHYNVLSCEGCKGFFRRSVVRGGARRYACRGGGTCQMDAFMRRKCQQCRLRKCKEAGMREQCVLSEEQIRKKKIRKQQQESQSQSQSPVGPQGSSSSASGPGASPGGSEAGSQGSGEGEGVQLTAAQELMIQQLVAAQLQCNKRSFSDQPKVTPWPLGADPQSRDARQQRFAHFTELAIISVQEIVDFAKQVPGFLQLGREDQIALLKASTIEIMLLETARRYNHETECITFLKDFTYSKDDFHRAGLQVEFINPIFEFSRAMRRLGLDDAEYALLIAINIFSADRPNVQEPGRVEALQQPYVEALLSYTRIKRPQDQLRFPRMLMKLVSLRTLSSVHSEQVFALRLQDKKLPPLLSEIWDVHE
Format: functional, cell-based.

A short description of experiment [6]: cells.
The nature of experiment [7]: HGIII-sPLA2 enzyme inhibition potency – biochemical, QFRET, IC50, dose response (AID 743457).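 Note: green fluorescence rise as the enzyme cleaves BODIPY PC-A2 in liposomes.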
Experiment [8] is described as follows: Late stage assay provider results from the probe development effort to identify selective inhibitors of heat shock protein 90 (HSP90): Absorbance-based cell proliferation assay in SKBR3 cells. Format: functional. The settings on record: SK-BR-3.
Experiment [9] concerns the target 1-phosphatidylinositol 4,5-bisphosphate phosphodiesterase beta-3 (Homo sapiens, UniProt Q01970). Kind of experiment: Fluorescence-based biochemical high throughput dose response assay to identify inhibitors of phospholipase C isozymes (PLC-B3).
Experiment [10] in a line: Luminescence Cell-Based Dose Response HTS to Identify Activators of Luciferase Translation or Activity in H4 […] Cells. [Related pubchem assays: 1829 (Project Summary), 1814 (Primary HTS)]. Format: functional.
The test system of the next experiment is H4. Description: Luminescence Cell-Based Dose Response HTS to Identify Activators of 5'UTR Stem-Loop Driven Prion Protein mRNA Translation in H4 Neuroglioblastoma Cells. [Related pubchem assays: 1829 (Project Summary), 1814 (Primary HTS)]. Format: functional. The settings on record: Homo sapiens.
The nature of experiment [11]: HIV-1 AD8 envelope cell-cell fusion blockers – cherry-pick, dose response (AID 652062).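 Note: luciferase signal from cell-cell fusion driven by HIV-1 clade B AD8 Env; potency is for inhibitors of fusion seen as a drop in luminescence.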 Format: functional, cell-based.
A short description of experiment [12]: blockers of HIV-1 envelope-mediated cell-cell fusion – cherry-pick, dose response (AID 652057). Format: functional, cell-based.
The nature of experiment [13]: Luminescence Cell-Based Dose Confirmation HTS to Identify Activators of 5'UTR Stem-Loop Driven Alpha-Synuclein mRNA Translation in H4 Neuroglioblastoma Cells. [Related pubchem assays: 1829 (Project Summary), 1814 (Primary HTS)]. Format: functional.
The target of experiment [14] is T3, Calpain-2 catalytic subunit (Sus scrofa, UniProt P43367).
T3 sequence (P43367 whole entry): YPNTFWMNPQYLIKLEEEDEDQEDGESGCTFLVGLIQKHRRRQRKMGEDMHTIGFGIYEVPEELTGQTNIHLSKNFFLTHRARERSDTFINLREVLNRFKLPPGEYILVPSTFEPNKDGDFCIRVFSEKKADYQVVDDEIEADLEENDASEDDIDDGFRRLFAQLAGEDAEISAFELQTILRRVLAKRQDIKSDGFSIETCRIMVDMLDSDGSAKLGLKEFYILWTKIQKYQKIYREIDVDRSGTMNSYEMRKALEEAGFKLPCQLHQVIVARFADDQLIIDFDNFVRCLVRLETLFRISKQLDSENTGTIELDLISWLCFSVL
Kind of experiment: m-calpain protease blockers, concentration series – biochemical, fluorogenic peptide substrate, dose response (AID 1420). Format: functional.

Experiment [15] deals with 1-phosphatidylinositol 4,5-bisphosphate phosphodiesterase gamma-1 (Homo sapiens, UniProt P19174). Kind of experiment: Counterscreen for inhibitors of phospholipase C isozymes (PLC-B3): Fluorescence-based biochemical high throughput dose response assay to identify inhibitors of phospholipase C isozymes (PLC-gamma1).
Chain of 1-phosphatidylinositol 4,5-bisphosphate phosphodiesterase gamma-1 (P19174 whole entry): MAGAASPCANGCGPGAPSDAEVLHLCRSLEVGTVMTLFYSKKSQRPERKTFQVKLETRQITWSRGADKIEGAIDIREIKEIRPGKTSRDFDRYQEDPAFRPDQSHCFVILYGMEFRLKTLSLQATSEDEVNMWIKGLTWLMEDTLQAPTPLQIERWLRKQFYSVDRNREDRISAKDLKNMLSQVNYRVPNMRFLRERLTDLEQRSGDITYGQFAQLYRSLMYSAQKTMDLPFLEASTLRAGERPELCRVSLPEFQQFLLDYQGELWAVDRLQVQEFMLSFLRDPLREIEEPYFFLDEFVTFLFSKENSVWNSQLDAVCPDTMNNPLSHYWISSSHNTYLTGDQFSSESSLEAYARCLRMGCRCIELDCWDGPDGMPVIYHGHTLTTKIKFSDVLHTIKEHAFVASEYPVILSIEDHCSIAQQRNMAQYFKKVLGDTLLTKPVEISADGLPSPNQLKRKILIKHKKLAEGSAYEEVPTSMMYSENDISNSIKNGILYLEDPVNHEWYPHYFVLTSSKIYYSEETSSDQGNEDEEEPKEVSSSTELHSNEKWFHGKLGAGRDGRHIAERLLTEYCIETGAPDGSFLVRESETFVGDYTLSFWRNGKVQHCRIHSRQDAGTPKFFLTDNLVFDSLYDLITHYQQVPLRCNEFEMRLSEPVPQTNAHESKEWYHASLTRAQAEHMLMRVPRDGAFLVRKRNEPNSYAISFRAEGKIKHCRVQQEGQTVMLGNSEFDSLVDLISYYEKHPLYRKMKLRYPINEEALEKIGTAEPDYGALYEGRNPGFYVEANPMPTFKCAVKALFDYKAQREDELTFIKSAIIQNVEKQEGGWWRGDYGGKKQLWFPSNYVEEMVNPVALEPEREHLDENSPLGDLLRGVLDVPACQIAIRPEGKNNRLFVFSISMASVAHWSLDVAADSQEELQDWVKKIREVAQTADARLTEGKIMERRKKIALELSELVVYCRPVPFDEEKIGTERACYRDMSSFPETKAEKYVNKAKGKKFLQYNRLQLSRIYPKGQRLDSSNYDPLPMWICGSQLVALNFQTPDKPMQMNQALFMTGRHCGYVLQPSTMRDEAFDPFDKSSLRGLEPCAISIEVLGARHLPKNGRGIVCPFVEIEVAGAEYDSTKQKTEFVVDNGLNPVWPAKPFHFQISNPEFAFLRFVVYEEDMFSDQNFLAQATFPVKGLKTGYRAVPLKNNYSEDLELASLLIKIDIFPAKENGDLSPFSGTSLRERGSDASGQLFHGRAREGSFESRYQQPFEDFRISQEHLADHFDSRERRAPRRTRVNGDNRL
The target of experiment [16] is COUP transcription factor 2 (Homo sapiens, UniProt P24468). Description: Luminescence-based cell-based high throughput dose response assay to identify inhibitors of COUP-TFII (NR2F2). Format: functional.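 Note: HEK293 cells transiently cotransfected with COUP-TFII expression vector and reporter; luciferase reporter luminescence driven by COUP-TFII from the pX2-168 reporter plasmid.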
Chain of COUP transcription factor 2 (P24468 whole entry): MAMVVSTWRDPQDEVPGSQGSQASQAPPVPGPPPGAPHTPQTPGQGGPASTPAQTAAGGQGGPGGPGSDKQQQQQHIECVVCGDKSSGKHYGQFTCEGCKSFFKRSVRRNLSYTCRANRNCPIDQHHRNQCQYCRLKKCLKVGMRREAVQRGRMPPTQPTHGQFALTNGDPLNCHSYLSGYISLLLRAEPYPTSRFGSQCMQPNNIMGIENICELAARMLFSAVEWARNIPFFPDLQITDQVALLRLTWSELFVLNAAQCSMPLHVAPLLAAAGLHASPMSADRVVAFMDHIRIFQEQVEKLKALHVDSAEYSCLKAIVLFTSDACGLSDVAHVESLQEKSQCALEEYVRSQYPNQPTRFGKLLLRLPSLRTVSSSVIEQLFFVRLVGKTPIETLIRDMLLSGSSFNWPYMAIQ
The nature of experiment [17]: antileishmanial activity on axenic amastigotes – plate reader, dry powder, dose response (AID 651892). Format: functional, cell-based.
A short description of experiment [18]: antileishmanial activity on axenic amastigotes – plate reader, cherry pick, dose response (AID 651891). The settings on record: Leishmania donovani. Format: functional, cell-based.
Experiment [19] in a line: host muscle cell viability loss – plate reader, dry powder, counter-screen for T. cruzi inhibitor project, dose response (AID 651895). Format: functional, cell-based.
Experiment [20] can be described thus: intracellular Chagas parasite inhibition in myoblasts – Tulahuen strain, L-6 host cells, dry powder, dose response (AID 651890). Format: functional, cell-based.
A short description of experiment [21]: anti-trypanosomal activity in BESM host cells – imaging, CA-I/72 strain, bovine embryo skeletal muscle, dry powder, dose response (AID 651885). Format: functional, cell-based.
Experiment [22] in a line: Trypanosoma cruzi replication inhibitors in host cells – cell-based, plate reader, dry powder samples, dose response (AID 651845). Format: functional.
Experiment [23] is described as follows: African trypanosome bloodstream form growth inhibition – STIB900 strain, plate reader, dry powder, dose response (AID 651894). Format: functional, cell-based.
Experiment [24] is described as follows: T. cruzi growth inhibition in host cells, dose response, cell-based, plate reader, dry powder, set 2 (AID 652275). Format: functional.
The nature of experiment [25]: African trypanosome bloodstream form growth inhibition – STIB900 strain, plate reader, cherry pick, dose response (AID 651893). Format: functional, cell-based, Trypanosoma brucei rhodesiense. The settings on record: Trypanosoma brucei.
Experiment [26] is described as follows: antimalarial activity against erythrocytic parasites – NF54 strain, plate reader, dry powder, dose response (AID 651889). Format: functional, cell-based.
The nature of experiment [27]: intracellular Trypanosoma cruzi inhibitors in host cells – cell-based, plate reader, cherry-pick samples, set 3, dose response (AID 651818).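 Note: compounds incubated with infected cells for about four days.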 Format: functional.
A short description of experiment [28]: L6 myocyte viability loss – cell-based, plate reader, cherry-pick, cytotoxicity control, dose response (AID 651896). Format: functional.
In another experiment the test system is HeLa. Kind of experiment: viability loss in HeLa cells – cell-based, ATP luminescence, cherry-pick samples, cytotoxicity control, dose response (AID 687004). Format: functional. Conditions: Homo sapiens.
In the next experiment the test system is Cryptococcus neoformans. Description: PubChem AID 686997. Format: functional, organism-based.

Chain of 1-phosphatidylinositol 4,5-bisphosphate phosphodiesterase beta-3 (Q01970 whole entry): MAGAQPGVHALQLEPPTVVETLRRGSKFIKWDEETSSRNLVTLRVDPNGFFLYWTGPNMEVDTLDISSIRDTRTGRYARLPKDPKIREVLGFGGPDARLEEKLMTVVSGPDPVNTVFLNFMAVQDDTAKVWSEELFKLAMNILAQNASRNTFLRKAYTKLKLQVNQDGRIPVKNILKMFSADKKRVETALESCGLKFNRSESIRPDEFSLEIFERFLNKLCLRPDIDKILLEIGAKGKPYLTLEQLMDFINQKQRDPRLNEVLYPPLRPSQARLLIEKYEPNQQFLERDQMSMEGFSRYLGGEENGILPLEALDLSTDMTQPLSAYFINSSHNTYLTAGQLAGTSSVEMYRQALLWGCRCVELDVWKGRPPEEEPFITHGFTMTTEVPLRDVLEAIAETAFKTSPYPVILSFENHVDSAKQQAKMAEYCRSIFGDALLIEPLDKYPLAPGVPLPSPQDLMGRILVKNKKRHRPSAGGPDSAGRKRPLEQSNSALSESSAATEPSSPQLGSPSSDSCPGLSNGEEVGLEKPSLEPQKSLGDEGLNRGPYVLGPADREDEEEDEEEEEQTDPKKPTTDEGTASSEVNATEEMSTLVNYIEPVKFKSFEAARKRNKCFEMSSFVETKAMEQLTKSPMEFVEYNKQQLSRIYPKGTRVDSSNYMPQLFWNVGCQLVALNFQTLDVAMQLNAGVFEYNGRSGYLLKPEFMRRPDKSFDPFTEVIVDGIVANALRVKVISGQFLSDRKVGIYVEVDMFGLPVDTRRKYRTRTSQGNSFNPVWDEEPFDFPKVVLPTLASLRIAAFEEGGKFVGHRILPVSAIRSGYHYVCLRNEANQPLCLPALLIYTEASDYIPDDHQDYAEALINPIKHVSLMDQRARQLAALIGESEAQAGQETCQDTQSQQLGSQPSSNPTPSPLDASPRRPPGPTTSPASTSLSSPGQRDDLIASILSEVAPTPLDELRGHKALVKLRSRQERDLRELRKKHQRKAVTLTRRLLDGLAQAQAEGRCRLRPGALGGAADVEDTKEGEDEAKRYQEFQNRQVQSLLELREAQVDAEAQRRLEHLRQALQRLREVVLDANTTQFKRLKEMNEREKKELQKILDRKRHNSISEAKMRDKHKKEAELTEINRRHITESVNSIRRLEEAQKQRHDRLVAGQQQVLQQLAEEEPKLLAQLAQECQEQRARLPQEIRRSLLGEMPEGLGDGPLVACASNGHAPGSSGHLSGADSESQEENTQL

In the case of `CCOC(=O)C(NC(=O)CC)(N1CCc2ccccc2C1)C(F)(F)F` (configuration not stated), the results for the EC50 (in the experiment “cells [1]”; in experiment [3]) were > 29.9 µM (inactive) and 0.125 µM (active), respectively. In addition, the IC50 in experiment [2] is 1.03 µM (active); in “cells [4]”, > 29.9 µM (inactive).
`CCCC#Cc1ccc2c(c1)COc1c3ccccc3nn1-2`: the EC50 (in [5]; in “cells [6]”) was > 67.5 µM (inactive) in each case.
Turning to `O=C(NNC(=S)Nc1ccccc1)NNC(=S)Nc1ccccc1`, in [7], the IC50 is > 122 µM (inactive).
Consider `COC(=O)c1ccc2nc(NC(=O)C3CCCCC3)sc2c1`, for which the IC50 in experiment [8] is 51.6 µM (inactive).
Consider `O=C(Nc1nc(COc2ccccc2)cs1)C12CC3CC(CC(C3)C1)C2`, for which the IC50 was > 123 µM (inactive) in experiment [9], 2.03 µM (not active) in experiment [14] and > 123 µM (inactive) in [15]. The EC50 is 20.7 µM (active) in experiment [10], 19 µM (active) in the experiment on H4 and 26.8 µM (active) in [13]. In addition, the AC50 in experiment [11] was 34.9 µM (active); in experiment [12], 49.8 µM (active).
On to `CC1(C)CC(=O)C=C(c2ccc(-c3cnc4ccccc4c3)cc2)C1=O`, for which the IC50 in [16] is 4.87 µM (active).
Turning to `C[C@H](CO)N1C[C@H](C)[C@H](CN(C)Cc2ccc(Oc3ccccc3)cc2)Oc2c(NC(=O)c3ccncc3)cccc2C1=O`, the IC50 in experiment [17] is > 100 µM (inactive); in [18] it was > 100 µM (inactive); in experiment [19], 54.7 µM (inactive); in experiment [20], 0.0755 µM (active); in experiment [21], 0.0098 µM (active); in experiment [23], 22.2 µM (inactive). The IC50 in experiment [25] was 18.5 µM (inactive); in [26], 2.32 µM (inactive); in experiment [28], 52.2 µM (active). Further, the concentration at half-maximal activity (AC50) in experiment [22] was 0.0158 µM (active); in [24], 0.00127 µM (active); in [27] it was 0.075 µM (active).
In the case of `COC(=O)C1=C(C)N(CC(C)C)C(=S)NC1c1ccc(Cl)cc1` (configuration not stated), the AC50 in the experiment with HeLa was > 60 µM (inactive); in the experiment with Cryptococcus neoformans it was 24 µM (active); in the experiment with Cryptococcus neoformans (Cryptococcus neoformans), 36.5 µM (active).

A word on the EC50: it is the concentration needed to bring the measured effect to its halfway point. As usually defined, the IC50 is the concentration that gives 50% inhibition. The AC50 is the concentration giving half of the maximal activity seen.
